The source of these data is US8188101B2 (AstraZeneca AB, priority 2008, dated 2012).

One experiment concerns Aβ42 release. In words: Aβ release in cells stably expressing APPswe, Meso Scale Discovery electrochemiluminescence assay. The experiment is classed as cell-based, Human. The settings on record: HEK or SH-SY5Y cells stably expressing APPswe, 4-6 hours incubation with test compound. As to the method:
The level of activity of the compounds on Aβ release was tested using the following method:
Compounds were diluted in 100% DMSO and stored at […] prior to use. Human Embryonic Kidney (HEK) or Human Neuroblastoma (SH-SY5Y) cell lines stably expressing APP with the Swedish mutation (APPswe) were cultured using Dulbecco's Modified Eagles medium (DMEM) supplied with […] glucose, Na-pyruvate and GlutaMAX with 10% FBS, 100 U/ml penicillin-streptomycin (PEST) respectively, 1× non-essential amino acids (NEAA), […] Hepes, 100 μg/ml Zeocine. Cells at about 80% confluence were washed with PBS, detached from culture flasks using 1× Trypsin/EDTA diluted in PBS, re-suspended in cell media and plated in 384-well poly-d-lysine coated cell culture plates at about 10000-15000 cells/well, in 25 μL cell media. Optionally, cryo-preserved cells (frozen and stored at −140° C. in 90% cell media and 10% DMSO) were thawed, washed and plated as above. Next the cells were incubated for 15-24 h at 37° C. and 5% CO2, after which cell medium was changed. Fresh medium containing test compound diluted ×200 from prepared compound plate was added to the cells before further incubation for 4-6 hours at 37° C. and 5% CO2. After incubation with test compound the amount of Aβ peptides, including Aβ42, Aβ40, Aβ39, Aβ38 and Aβ37, secreted to the cell medium was analyzed using the electrochemiluminescence assay technology from Meso Scale Discovery Technology, in combination with specific antibodies raised against the different Aβ peptides. Potential cytotoxic effects of the compounds were usually assayed by measuring the ATP content (ViaLight) from cell lysate.
`Cc1nccn1-c1ccc(Nc2nc3c(c(C(C)c4ccccc4)n2)CN(C)CC3)cc1` (single isomer, unassigned) [Example 70, 6-Methyl-N-(4-(2-methyl-1H-imidazol-1-yl)phenyl)-4-(1-phenylethyl)-5,6,7,8-tetrahydropyrido[4,3-d]pyrimidin-2-amine]: the pIC50 was found to be 6.2.
For the compound `Cc1nccn1-c1ccc(Nc2nc3c(c(C(C)c4ccccc4)n2)CN(C)CC3)cc1` (single isomer, unassigned) [Example 71, 6-Methyl-N-(4-(2-methyl-1H-imidazol-1-yl)phenyl)-4-(1-phenylethyl)-5,6,7,8-tetrahydropyrido[4,3-d]pyrimidin-2-amine], the negative-log IC50 (pIC50) is 6.6.

Still in this experiment, the particulars now being: Homo sapiens, SH-SY5Y, HEK or SH-SY5Y cells stably expressing APPswe, 4-6 hours incubation with test compound.
For the compound `OCCN(c1ccccc1)c1nc(Nc2ccc(-c3cnco3)cc2)nc2c1CNCC2` [Example 1, 2-((2-(4-(Oxazol-5-yl)phenylamino)-5,6,7,8-tetrahydropyrido[4,3-d]pyrimidin-4-yl)(phenyl)amino)ethanol], the IC50 was 1000 nM.
Still for that read-out and setting: for `CN1CCc2nc(Nc3ccc(-c4cnco4)cc3)nc(N(CCO)c3ccccc3)c2C1` [Example 2, 2-((6-Methyl-2-(4-(oxazol-5-yl)phenylamino)-5,6,7,8-tetrahydropyrido[4,3-d]pyrimidin-4-yl)(phenyl)amino)ethanol] the value was 398 nM; for `c1ccc(Nc2nc(Nc3ccc(-c4cnco4)cc3)nc3c2CNCC3)cc1` [Example 3, N2-(4-(Oxazol-5-yl)phenyl)-N4-phenyl-5,6,7,8-tetrahydropyrido[4,3-d]pyrimidine-2,4-diamine], 1000 nM.
`CN1CCc2nc(Nc3ccc(-c4cnco4)cc3)nc(Nc3ccccc3)c2C1` [Example 4, 6-Methyl-N2-(4-(oxazol-5-yl)phenyl)-N4-phenyl-5,6,7,8-tetrahydropyrido[4,3-d]pyrimidine-2,4-diamine]: the IC50 is 316 nM.
With `c1ccc(CNc2nc(Nc3ccc(-c4cnco4)cc3)nc3c2CCNC3)cc1` [Example 5, N4-Benzyl-N2-(4-(oxazol-5-yl)phenyl)-5,6,7,8-tetrahydropyrido[3,4-d]pyrimidine-2,4-diamine], the IC50 was 1000 nM.
Consider `c1ccc(CNc2nc(Nc3ccc(-c4cnco4)cc3)nc3c2CNCC3)cc1` [Example 6, N4-Benzyl-N2-(4-(oxazol-5-yl)phenyl)-5,6,7,8-tetrahydropyrido[4,3-d]pyrimidine-2,4-diamine], for which the IC50 was 1260 nM.
With `COc1cc(Nc2nc3c(c(Nc4ccccc4)n2)CNCC3)ccc1-n1cnc(C)c1` [Example 7, N2-(3-Methoxy-4-(4-methyl-1H-imidazol-1-yl)phenyl)-N4-phenyl-5,6,7,8-tetrahydropyrido[4,3-d]pyrimidine-2,4-diamine], the IC50 is 100 nM.
As for `COc1cc(Nc2nc3c(c(Nc4ccccc4)n2)CN(CCO)CC3)ccc1-n1cnc(C)c1` [Example 8, 2-(2-(3-Methoxy-4-(4-methyl-1H-imidazol-1-yl)phenylamino)-4-(phenylamino)-7,8-dihydropyrido[4,3-d]pyrimidin-6(5H)-yl)ethanol], the IC50 is 79.4 nM.
Still for that read-out and setting: then `Cc1nccn1-c1ccc(Nc2nc3c(c(N4c5ccccc5C[C@H]4CO)n2)CN(C)CC3)cc1` [Example 9, (S)-(1-(6-methyl-2-(4-(2-methyl-1H-imidazol-1-yl)phenylamino)-5,6,7,8-tetrahydropyrido[4,3-d]pyrimidin-4-yl)indolin-2-yl)methanol], with 1580 nM; and `Cc1nccn1-c1ccc(Nc2nc3c(c(N[C@@H]4CC5CCC4C5)n2)CN(C)CC3)cc1` (stereo partly drawn) [Example 10, N4-((2R)-bicyclo[2.2.1]heptan-2-yl)-6-methyl-N2-(4-(2-methyl-1H-imidazol-1-yl)phenyl)-5,6,7,8-tetrahydropyrido[4,3-d]pyrimidine-2,4-diamine], with 501 nM; and `Cc1nccn1-c1ccc(Nc2nc3c(c(N(C)C4CCCCC4)n2)CN(C)CC3)cc1` [Example 11, N4-Cyclohexyl-N4,6-dimethyl-N2-(4-(2-methyl-1H-imidazol-1-yl)phenyl)-5,6,7,8-tetrahydropyrido[4,3-d]pyrimidine-2,4-diamine], with 398 nM.
On to `c1ccc(COc2nc(Nc3ccc(-c4cnco4)cc3)nc3c2CNCC3)cc1` [Example 12, 4-(Benzyloxy)-N-(4-(oxazol-5-yl)phenyl)-5,6,7,8-tetrahydropyrido[4,3-d]pyrimidin-2-amine], for which the IC50 is 3980 nM.
Regarding `Cc1nccn1-c1ccc(Nc2nc3c(c(N4c5ccccc5C[C@@H]4CO)n2)CN(C)CC3)cc1` [Example 13, (R)-(1-(6-Methyl-2-(4-(2-methyl-1H-imidazol-1-yl)phenylamino)-5,6,7,8-tetrahydropyrido[4,3-d]pyrimidin-4-yl)indolin-2-yl)methanol], the IC50 was 3160 nM.
Consider `CCCN1CCc2nc(Nc3ccc(-c4cnco4)cc3)nc(N(CCO)c3ccccc3)c2C1` [Example 14, 2-((2-(4-(Oxazol-5-yl)phenylamino)-6-propyl-5,6,7,8-tetrahydropyrido[4,3-d]pyrimidin-4-yl)(phenyl)amino)ethanol], for which the 50% inhibitory concentration (IC50) was 126 nM.
For `CCC(=O)N1CCc2nc(Nc3ccc(-c4cnco4)cc3)nc(N(CCO)c3ccccc3)c2C1` [Example 15, 1-(4-((2-Hydroxyethyl)(phenyl)amino)-2-(4-(oxazol-5-yl)phenylamino)-7,8-dihydropyrido[4,3-d]pyrimidin-6(5H)-yl)propan-1-one], the IC50 was 398 nM.
For the compound `O=C(C1CC1)N1CCc2nc(Nc3ccc(-c4cnco4)cc3)nc(N(CCO)c3ccccc3)c2C1` [Example 16, Cyclopropyl(4-((2-hydroxyethyl)(phenyl)amino)-2-(4-(oxazol-5-yl)phenylamino)-7,8-dihydropyrido[4,3-d]pyrimidin-6(5H)-yl)methanone], the IC50 was 631 nM.
For `CN(C)CC(=O)N1CCc2nc(Nc3ccc(-c4cnco4)cc3)nc(N(CCO)c3ccccc3)c2C1` [Example 17, 2-(Dimethylamino)-1-(4-((2-hydroxyethyl)(phenyl)amino)-2-(4-(oxazol-5-yl)phenylamino)-7,8-dihydropyrido[4,3-d]pyrimidin-6(5H)-yl)ethanone], the IC50 is 1580 nM.
For `COCC(=O)N1CCc2nc(Nc3ccc(-c4cnco4)cc3)nc(N(CCO)c3ccccc3)c2C1` [Example 18, 1-(4-((2-Hydroxyethyl)(phenyl)amino)-2-(4-(oxazol-5-yl)phenylamino)-7,8-dihydropyrido[4,3-d]pyrimidin-6(5H)-yl)-2-methoxyethanone], the IC50 was 2510 nM.
Turning to `O=C(CO)N1CCc2nc(Nc3ccc(-c4cnco4)cc3)nc(N(CCO)c3ccccc3)c2C1` [Example 19, 2-Hydroxy-1-(4-((2-hydroxyethyl)(phenyl)amino)-2-(4-(oxazol-5-yl)phenylamino)-7,8-dihydropyrido[4,3-d]pyrimidin-6(5H)-yl)ethanone], the IC50 was 794 nM.
Take `C[C@H](O)C(=O)N1CCc2nc(Nc3ccc(-c4cnco4)cc3)nc(N(CCO)c3ccccc3)c2C1` [Example 20, (S)-2-Hydroxy-1-(4-((2-hydroxyethyl)(phenyl)amino)-2-(4-(oxazol-5-yl)phenylamino)-7,8-dihydropyrido[4,3-d]pyrimidin-6(5H)-yl)propan-1-one]: the IC50 is 1000 nM.
For the compound `CS(=O)(=O)N1CCc2nc(Nc3ccc(-c4cnco4)cc3)nc(N(CCO)c3ccccc3)c2C1` [Example 21, 2-((6-(Methylsulfonyl)-2-(4-(oxazol-5-yl)phenylamino)-5,6,7,8-tetrahydropyrido[4,3-d]pyrimidin-4-yl)(phenyl)amino)ethanol], the IC50 was 1260 nM.
On the same count and under the same terms, then `CCS(=O)(=O)N1CCc2nc(Nc3ccc(-c4cnco4)cc3)nc(N(CCO)c3ccccc3)c2C1` [Example 22, 2-((6-(Ethylsulfonyl)-2-(4-(oxazol-5-yl)phenylamino)-5,6,7,8-tetrahydropyrido[4,3-d]pyrimidin-4-yl)(phenyl)amino)ethanol], with 398 nM; and `COC(=O)N1CCc2nc(Nc3ccc(-c4cnco4)cc3)nc(N(CCO)c3ccccc3)c2C1` [Example 23, Methyl 4-((2-hydroxyethyl)(phenyl)amino)-2-(4-(oxazol-5-yl)phenylamino)-7,8-dihydropyrido[4,3-d]pyrimidine-6(5H)-carboxylate], with 6310 nM; and `CCOC(=O)N1CCc2nc(Nc3ccc(-c4cnco4)cc3)nc(N(CCO)c3ccccc3)c2C1` [Example 24, Ethyl 4-((2-hydroxyethyl)(phenyl)amino)-2-(4-(oxazol-5-yl)phenylamino)-7,8-dihydropyrido[4,3-d]pyrimidine-6(5H)-carboxylate], with 251 nM.
On the same count and under the same terms, for `CN(C)C(=O)N1CCc2nc(Nc3ccc(-c4cnco4)cc3)nc(N(CCO)c3ccccc3)c2C1` [Example 25, 4-((2-Hydroxyethyl)(phenyl)amino)-N,N-dimethyl-2-(4-(oxazol-5-yl)phenylamino)-7,8-dihydropyrido[4,3-d]pyrimidine-6(5H)-carboxamide] the value was 794 nM; for `CC(=O)N1CCc2nc(Nc3ccc(-c4cnco4)cc3)nc(NC3CCCCC3)c2C1` [Example 26, 1-(4-(Cyclohexylamino)-2-(4-(oxazol-5-yl)phenylamino)-7,8-dihydropyrido[4,3-d]pyrimidin-6(5H)-yl)ethanone], 126 nM.

Usually pIC50 stands for the negative decadic logarithm of the IC50, by convention in mol/L. For orientation: IC50 means the concentration at which inhibition is half-maximal.
